The values that follow come from patent publication US20190192510A1, “GPR119 AGONIST” (NIPPON CHEMIPHAR CO., LTD., priority 2010, published 2019).

The subject of one data set is normal mice. Nature of the data set: Oral glucose tolerance test in normal mice (Pharmacological Experiment 3). The format is in vivo. The protocol:
Oral glucose tolerance is tested in normal mice.
In this experiment, the inhibitory effect of a test compound on glycemic excursions is examined after glucose administration in normal mice. The test methods are described below.
Male 9-week-old ICR mice, habituated to the experimental environment for two weeks, are fasted for 18 hours and used to this experiment. Mice are orally administered the analyte or vehicle (polyethylene glycol 400:ethanol:Tween 80=8:1:1). After 30 minutes, they were orally given glucose at the dose of 3 g/kg.
Blood is collected at just before the analyte or vehicle administration (−30 minutes), immediately before glucose challenge (0 minute), 20 minutes, 40 minutes, 60 minutes, and 120 minutes after glucose ingestion to determine blood glucose levels.
Inhibition rate (%) of the test compound versus vehicle in areas under the glycemic excursion curve between 0 minute and 120 minutes after glucose challenge is determined. […]
Blood was collected at just before the test compound or vehicle administration (−30 min), immediately before glucose challenge (0 min), 20 min, 40 min, 60 min and 120 min after glucose ingestion and then blood glucose levels were determined.
Inhibition rate (%) of the test compound versus vehicle in areas under the glycemic excursion curve between 0 and 120 min after glucose challenge was determined.

A further data set concerns the target T1, human GPR119 (Homo sapiens, UniProt Q8TDV5).
T1 sequence (Q8TDV5 1-335): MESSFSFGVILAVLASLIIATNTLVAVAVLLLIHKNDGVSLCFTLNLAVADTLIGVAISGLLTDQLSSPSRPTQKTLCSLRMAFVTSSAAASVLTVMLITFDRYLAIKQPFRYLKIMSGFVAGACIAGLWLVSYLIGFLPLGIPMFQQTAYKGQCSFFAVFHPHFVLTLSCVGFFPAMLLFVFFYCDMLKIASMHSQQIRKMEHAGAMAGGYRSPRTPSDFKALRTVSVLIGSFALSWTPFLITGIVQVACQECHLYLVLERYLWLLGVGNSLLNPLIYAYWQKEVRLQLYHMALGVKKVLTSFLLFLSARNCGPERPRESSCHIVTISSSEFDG
Nature of the data set: Intracellular cAMP increase in human GPR119 introduced cells (Pharmacological Experiments 1 and 2). The format is cell-based. Particulars: for GPR119 agonist effect: result in words, refers to Tables 12 and 13.
Source text: The GPR119 agonist effect is studied by measuring the effect of an analyte on increase of intracellular amount of cAMP in human GPR119 introduced cells. The testing method is described below.
Human GPR119 gene (NM 178471) is purchased from ATCC (ATCC No. 10807349), and is amplyfied according to PCR to form BamHI site at 5′ side and Apa I site at 3′ side. The forward side primer is […] (sequence No. 1), and the reverse side primer is […] (sequence No. 2). The PCR conditions are described below.
(§1) The double-stranded DNA is thermally denatured using a DNA polymerase (KOD-Plus-Ver. 2; TOYOBO #KOD-211) at 98° C. for 10 seconds in one cycle. The denatured single-stranded DNA is annealed with the primers at 55° C. for 30 seconds. The DNA is subjected to an extension reaction at 68° C. for 1 minute and 15 seconds. The above-mentioned steps are repeated in 35 cycles. The PCR product is inserted into pcDNA5/FRT/TO (Invitrogen #V6520-20) plasmid. Flp-in T-Rex-293 cells (Invitorogen #R78007) are transfected with the obtained plasmid. The method of transfection is conducted in accordance with the protocol of the product.
The stable cell line expressing human GPR119 prepared in the above-mentioned method is plated on a 96-well plate at the concentration of 2,500 cells/well using Dulbecco's Modified Eagle Medium (DMEM) containing 10% fetal bovine serum (FBS). Twenty-four hours after plating, tetracyclin (Invitrogen #Q10019) is added at the final concentration of 20 ng/mL to induce hGPR119 gene expression. Twenty-four hours after, the medium is removed, and the cells are stimulated with an assay buffer (0.5 mM IBMX PBS(−)) containing the test compound at 37° C. for 30 minutes. The amount of the intracellular cAMP is measured using a commercially available kit (HitHunter™ cAMP XS+ Assay: GE Healthcare #90007503) and a reader (FLUOstar Optima: BMG LABTECH). The test compound is dissolved in 100% DMSO, and added at the final concentration of 1%.
Human GPR119 gene (NM 178471) was purchased from ATCC (ATCC No. 10807349), and is amplyfied according to PCR to form BamHI site at 5′ side and Apa I site at 3′ side. The primers were […] (sequence No. 1) and […] (sequence No. 2). The PCR conditions are described below.
as §1, with “was” for “is”, “were” for “are”
The stable cell line expressing human GPR119 prepared in the above-mentioned method was plated on a 96-well plate at the concentration of 2,500 cells/well using Dulbecco's Modified Eagle Medium (DMEM) containing 10% fetal bovine serum (FBS). Twenty-four hours after plating, tetracyclin (Invitrogen #Q10019) was added at the final concentration of 20 ng/mL to induce hGPR119 gene expression. Twenty-four hours after, the medium was removed, and the cells were stimulated with an assay buffer (0.5 mM IBMX PBS (−)) containing the test compound at 37° C. for 30 minutes. The amount of the intracellular cAMP was measured using a commercially available kit (HitHunter™ cAMP XS+ Assay: GE Healthcare #90007503) and a reader (FLUOstar Optima: BMG LABTECH). The test compound was dissolved in 100% DMSO, and added at the final concentration of 1%.
The examination was performed by the method similar to Example 61 Pharmacological experiment 1-(1), 1-(2).

The mark [1] stands for this setting: Table 12, Flp-in T-Rex-293 cells stably expressing hGPR119, intracellular cAMP, 37° C. for 30 minutes, read-out: EC50.
The mark [2] stands for this setting: Table 13, Pharmacological experiment 2, method similar to Example 61, read-out: EC50.

By EC50 is commonly meant the concentration needed to bring the measured effect to its halfway point. The melting point is the temperature, or range, at which the solid turns liquid.

Read-outs that look alike come from different tables or passages of the source.

With `CC(C)(C)OC(=O)N1CCC(c2cnc(Cn3ccc4cc(S(C)(=O)=O)ccc43)cn2)CC1` [Example 9, tert-Butyl 4-[5-(5-methanesulfonylindol-1-ylmethyl)pyrazin-2-yl]piperidine-1-carboxylate], the “Inhibition rate (%)” value with normal mice (1 mg/kg oral, male ICR mice, area under glycemic excursion curve 0-120 min after glucose 3 g/kg, versus vehicle) is reported as 31.1%. Also, the “inhibitory effect on glycemic excursions” value in the data set on normal mice (result in words, refers to Table 14) is given as “excellent inhibitory effect on glycemic excursions”. Also, the half-maximal effective concentration (EC50) on human GPR119 (setting [1]) was determined as 13.8 nM. The GPR119 agonist effect entry on human GPR119 is on record as “excellent GPR119 agonist effect”.
The compound `CC(C)(C)OC(=O)N1CC=C(c2cnc(COc3ccc(-n4cncn4)cc3)cn2)CC1` [Example 13, tert-Butyl 4-[5-[4-(1,2,4-triazol-1-yl)phenoxymethyl]pyrazin-2-yl]-3,6-dihydro-2H-pyridine-1-carboxylate] showed a melting point of 152 to 154 °C. At human GPR119 (setting [1]), the concentration giving a half-maximal response (EC50) was 130 nM.
On to `CC(C)(C)OC(=O)N1CC=C(c2cnc(COc3ccc(S(C)(=O)=O)c(F)c3F)cn2)CC1` [Example 18, tert-Butyl 4-[5-(2,3-difluoro-4-methanesulfonylphenoxymethyl)pyrazin-2-yl]-3,6-dihydro-2H-pyridine-1-carboxylate], for which the melting point was in the range of 176 to 179 °C. Besides, the 50% effective concentration (EC50) on human GPR119 (setting [1]) was found to be 110 nM.
For `CC(C)(C)OC(=O)N1CCC(c2cnc(Cn3ccc4cc(-n5cnnn5)cc(F)c43)nc2)CC1` [Example 49, tert-Butyl 4-[2-[7-fluoro-5-(tetrazol-1-yl)indol-1-ylmethyl]pyrimidin-5-yl]piperidine-1-carboxylate], the EC50 on human GPR119 stood at 30.1 nM.
At human GPR119, `CC(C)OC(=O)N1CCC(c2cnc(Cn3ccc4cc(-n5cnnn5)cc(F)c43)nc2)CC1` [Example 50, Isopropyl 4-[2-[7-fluoro-5-(tetrazol-1-yl)indol-1-ylmethyl]pyrimidin-5-yl]piperidine-1-carboxylate] came in with a 50% effective concentration (EC50) of 17.4 nM.
On to `CS(=O)(=O)c1cc(F)c2c(ccn2Cc2cnc(C3CCN(c4ncc(Br)cn4)CC3)cn2)c1` [Example 51, 5-Bromo-2-[4-[5-(7-fluoro-5-methanesulfonylindol-1-ylmethyl)pyrazin-2-yl]piperidine-1-yl]pyrimidine], for which the concentration for a half-maximal effect (EC50) at human GPR119 (setting [2]) turned out to be 5.4 nM. In addition, on human GPR119, the GPR119 agonist effect result is “excellent GPR119 agonist effect”.
Take `Fc1cc(-n2cnnn2)cc2ccn(Cc3cnc(C4CCN(c5ncc(Br)cn5)CC4)cn3)c12` [Example 54, 5-Bromo-2-[4-[5-[7-fluoro-5-(tetrazol-1-yl)indol-1-ylmethyl]pyrazin-2-yl]piperidin-1-yl]pyrimidine]: the EC50 on human GPR119 (setting [2]) stood at 14.2 nM.
